According to patent publication US20100215696A1, “E[…] C VIRUS MUTANT, A HEPTITIS C VIRUS MUTANT […] GENE, A METHOD OF PREPARING OF HCV VACCINE USING THE SAME AND A METHOD OF SCREENING ANTI HCV COMPOSITION USING THE SAME” (priority 2007, published 2010):

System: JFH 5a-GFP
Assay: Real time assessment of anti-viral activity in individual JFH 5a-GFP infected Huh 7.5.1 cells (time-lapse confocal GFP fluorescence)
Type: cell-based, hepatitis C virus
Conditions: 1000 IU/ml IFN-α, monitored every 12 hours up to 60 hours, FIGS. 13-16
Protocol: Huh 7.5.1 cells were infected with culture supernatant obtained from the transformant transfected with JFH 5a-GFP RNA (the transformant was transformed with the introduction of JFH 5a-GFP RNA via electroporation into Huh 7.5.1 cells, in Example 2-1).
After treating or mock-treating (i.e., no IFN-α treated) the transformant with IFN-α, GFP fluorescence was monitored every 12 hours up to 60 hours by using time-lapse confocal microscopy (Zeiss LSM 5 Live). For time-lapse imaging, coverslips were mounted onto the microscope stage, which was equipped with a temperature- and gas-controlled chamber (Chamide IC, Live Cell Instrument, Korea).
In addition, quantitative analyses of the fluorescence images of 8 cells were made by using MetaMorph software. The grouping of the figures was made depending on whether the cell was treated with IFN-α.
FIGS. 10 and 14 are graphs showing changing fluorescence levels in 8 transformants, in absolute values. FIGS. 11 and 15 are graphs showing changing fluorescence levels over time in 8 transformants, in relative values against the starting value, i.e., the value given to the transformants with no IFN-α treated.

With Interferon-alpha [IFN-α] the “5a-GFP fluorescence intensities over time in 8 transformants” value was “seven among eight transformants showed decreasing fluorescence intensities over time”.
